target: T1, human CCR5 (Homo sapiens, UniProt P51681); test: Inhibition of [125I]-RANTES binding to CCR5/CHO cells (CCR5 antagonist activity); conditions: 40 min, test compound 1 μM, 100 pM [125I]-RANTES as ligand, room temperature, read-out: Binding Inhibitory Ratio (%)
T1 construct: expressed in transfected cells; host or cells: CHO-K1 cells, stably transfected with pCKR5 (pcDNA3.1 backbone), Geneticin-selected
Method: (1) Cloning of Human CCR5 Chemokine Receptor Cloning of CCR5 gene was conducted from human spleen cDNA by PCR method. Using cDNA (0.5 ng) from spleen (Toyobo, QUICK-Clone cDNA) as a genetic template, primer sets prepared by referring to CCR5 gene nucleotide sequence described by Samson et al. (Biochemistry 35 (11), 3362-3367 (1996), i.e., (2) Preparation of Expression Plasmid of Human CCR5 […] The DNA fragments and an expression plasmid for animal cells pcDN A3.1 (Funakoshi), which was previously digested by XbaI and BamHI, were mixed and ligated by DNA Ligation Kit Ver. 2 (Takara Shuzo). Transformation of E. coli JM109 competent cells (Takara Shuzo) gave plasmid pCKR5. (3) Introduction of the Human CCR5 Expression Plasmid into CHO-K1 Cells and Expression Thereof […] The cells were washed with PBS (Lifetech Oriental), centrifuged (1000 rpm, 5 minutes), and resuspended in PBS. The DNA was introduced into the cells using Gene Pulser (BioRad) according to the following conditions. […] The cells were diluted to a concentration of 10^4 cells/ml, and inoculated in 96 well plate (Becton Dickinson), to obtain Geneticin-resistant cells. The Geneticin-resistant cells ware grown in 96 well plate (Becton Dickinson), and CCR5 expressing cells were selected from the resistant cells. Namely, in an assay buffer, (Ham F12 medium containing 0.5% BSA, and 20 mM HEPES (Wako Pure Chemical Ind., pH 7.2)), containing 200 pM [^125I]-RANTES (Amersham) as a ligand, the cells were subjected to binding reaction at room temperature for 40 minutes. The well plate containing the cells was washed with ice-cooled PBS, added with 1M NaOH in an amount of 50 μl/well and stirred. The cells to which the ligand bound specifically, i.e., CCR5/CHO cells, were selected by measurement of radioactivity by γ-counter. (4) Evaluation of Compounds Based on CCR5 Antagonist Activity The CCR5/CHO cells were inoculated in 96 well microplate at a concentration of 5×10^4 cells/well, and grown for 24 hours. After removal of the medium by aspiration, to each well was added an assay buffer containing a test compound (1 μM), and (^125I)/RANTES (Amersham) used as a ligand at a concentration of 100 pM. The mixture was subjected to the reaction at room temperature for 40 minutes. After removal of the assay buffer by aspiration, each well was washed with cooled PBS twice. Then, 200 μl MicroScint 20 (Packerd) was added to each well, and the radioactivity of each well was measured by TopCount (Packard). According to the method above, inhibitory ratios to CCR5 binding of the test compounds were determined.

T1 sequence (P51681 whole entry): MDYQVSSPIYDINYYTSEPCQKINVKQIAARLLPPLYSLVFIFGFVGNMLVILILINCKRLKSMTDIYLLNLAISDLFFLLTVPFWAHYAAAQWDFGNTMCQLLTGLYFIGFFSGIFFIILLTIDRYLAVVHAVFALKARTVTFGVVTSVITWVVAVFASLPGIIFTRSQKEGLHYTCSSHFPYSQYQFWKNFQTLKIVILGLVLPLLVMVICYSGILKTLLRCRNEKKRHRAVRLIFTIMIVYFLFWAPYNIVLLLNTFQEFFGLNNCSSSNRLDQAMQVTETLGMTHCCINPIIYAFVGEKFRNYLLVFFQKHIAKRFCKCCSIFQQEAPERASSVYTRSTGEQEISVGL

Question: CCCCOCCOc1ccc(-c2ccc3c(c2)C=C(C(=O)Nc2ccc([S+]([O-])Cc4nncn4CCC)cc2)CCCN3CC(C)C)cc1 (single isomer, unassigned; (+)) [Compound 48, (+)-8-[4-(2-butoxyethoxy)phenyl]-1-isobutyl-N-[4-[[(4-propyl-4H-1,2,4-triazol-3-yl)methyl]sulfinyl]phenyl]-1,2,3,4-tetrahydro-1-benzazocine-5-carboxamide] was tested. Which inhibition at 1 µM did it give?
Answer: The inhibition at 1 µM was 97%.

Question: With CCCCOCCOc1ccc(-c2ccc3c(c2)C=C(C(=O)Nc2ccc([S+]([O-])Cc4cncn4CCC)cc2)CCCN3CCC)cc1 (single isomer, unassigned; (-)) [Compound 9, (−)-8-[4-(2-butoxyethoxy)phenyl]-1-propyl-N-[4-[[[1-propylimidazol-5-yl]methyl]sulfinyl]phenyl]-1,2,3,4-tetrahydro-1-benzoazocine-5-carboxamide] as the compound, how does the inhibition at 1 µM read?
Answer: Its inhibition at 1 µM is 100%.

Question: With CCCCOCCOc1ccc(-c2ccc3c(c2)C=C(C(=O)Nc2ccc([S+]([O-])Cc4nccn4CCC)cc2)CCCN3CCC)cc1 (single isomer, unassigned; (-)) [Compound 22, (−)-8-[4-(2-butoxyethoxy)phenyl]-1-propyl-N-[4-[[[1-propylimidazol-2-yl]methyl]sulfinyl]phenyl]-1,2,3,4-tetrahydro-1-benzoazocine-5-carboxamide] as the compound, how does the inhibition at 1 µM read?
Answer: The inhibition at 1 µM was 98%.

Question: How did the inhibition at 1 µM turn out when CCCCOCCOc1ccc(-c2ccc3c(c2)C=C(C(=O)Nc2ccc([S+]([O-])Cc4cncn4CCC)cc2)CCCCN3CC(C)C)cc1 (single isomer, unassigned; (-)) [Compound 26, (−)-9-[4-(2-butoxyethoxy)phenyl]-1-isobutyl-N-[4-[[[1-propylimidazol-5-yl]methyl]sulfinyl]phenyl]-2,3,4,5-tetrahydro-1H-1-benzoazonin-6-carboxamide] was run?
Answer: The inhibition at 1 µM was 100%.

Question: CCCCOCCOc1ccc(-c2ccc3c(c2)C=C(C(=O)Nc2ccc([S+]([O-])Cc4cncn4CCC)cc2)CCCN3Cc2cnn(C)c2)cc1 (single isomer, unassigned; (-)) [Compound 34, (−)-8-[4-(2-butoxyethoxy)phenyl]-1-((1-methylpyrazol-4-yl)methyl)-N-[4-[[[1-propylimidazol-5-yl]methyl]sulfinyl]phenyl]-1,2,3,4-tetrahydro-1-benzoazocine-5-carboxamide] was tested. Which inhibition at 1 µM did it give?
Answer: Its inhibition at 1 µM is 97%.

Question: How did the inhibition at 1 µM turn out when CCCCOCCOc1ccc(-c2ccc3c(c2)C=C(C(=O)Nc2ccc(CN(C)C4CCOCC4)cc2)CCCO3)cc1 [Compound 1, 8-[4-(2-butoxyethoxy)phenyl]-N-[4-[[N-methyl-N-(tetrahydropyran-4-yl)amino]methyl]phenyl]-3,4-dihydro-2H-1-benzoxocin-5-carboxamide] was run?
Answer: The inhibition at 1 µM was 94%.

Question: CCCCOCCOc1ccc(-c2ccc3c(c2)C=C(C(=O)Nc2ccc(CN(C)C4CCOCC4)cc2)CCCN3CCC)cc1 [Compound 2, 8-[4-(2-butoxyethoxy)phenyl]-1-propyl-N-[4-[[N-methyl-N-(tetrahydropyran-4-yl)amino]methyl]phenyl]-1,2,3,4-tetrahydro-1-benzazocine-5-carboxamide] was tested. Which inhibition at 1 µM did it give?
Answer: Its inhibition at 1 µM is 96%.

Question: For CCCCOCCOc1ccc(-c2ccc3c(c2)C=C(C(=O)Nc2ccc(SCc4cncn4CCC)cc2)CCCN3CCC)cc1 [Compound 3, 8-[4-(2-butoxyethoxy)phenyl]-1-propyl-N-[4-[[[1-propylimidazol-5-yl]methyl]sulfanyl]phenyl]-1,2,3,4-tetrahydro-1-benzazocine-5-carboxamide], which inhibition at 1 µM is on record?
Answer: The inhibition at 1 µM was 91%.

Question: CCCCOCCOc1ccc(-c2ccc3c(c2)C=C(C(=O)Nc2ccc(S(=O)(=O)Cc4cncn4CCC)cc2)CCCN3CCC)cc1 [Compound 5, 8-[4-(2-butoxyethoxy)phenyl]-1-propyl-N-[4-[[[1-propylimidazol-5-yl]methyl]sulfonyl]phenyl]-1,2,3,4-tetrahydro-1-benzazocine-5-carboxamide] was tested. Which inhibition at 1 µM did it give?
Answer: The inhibition at 1 µM was 86%.

Question: For CCCCOCCOc1ccc(-c2ccc3c(c2)C=C(C(=O)Nc2ccc([S+]([O-])Cc4cncn4CCC)cc2)CCCN3CC(C)C)cc1 (stereo not shown) [Compound 7, 8-[4-(2-butoxyethoxy)phenyl]-1-isobutyl-N-[4-[[[1-propyl-1H-imidazol-5-yl]methyl]sulfinyl]phenyl]-1,2,3,4-tetrahydro-1-benzazocine-5-carboxamide], which inhibition at 1 µM is on record?
Answer: The inhibition at 1 µM was 100%.

same assay, conditions: test compound 1 μM, 100 pM [125I]-RANTES as ligand, room temperature, 40 minutes

Question: For CCCCOCCOc1ccc(-c2ccc3c(c2)C=C(C(=O)Nc2ccc([S+]([O-])Cc4nncn4CCC)cc2)CCCN3CCC)cc1 (single isomer, unassigned; (+)) [Compound 53, (+)-8-[4-(2-butoxyethoxy)phenyl]-1-propyl-N-[4-[[(4-propyl-4H-1,2,4-triazol-3-yl)methyl]sulfinyl]phenyl]-1,2,3,4-tetrahydro-1-benzazocin-5-carboxamide], which “Binding Inhibitory Ratio (%)” value is on record?
Answer: Its value is 100%.

Question: How did the “Binding Inhibitory Ratio (%)” value turn out when CCCCOCCOc1ccc(-c2ccc3c(c2)C=C(C(=O)Nc2ccc([S+]([O-])Cc4cncn4CCC)cc2)CCCN3CC(C)C)cc1.CS(=O)(=O)O (single isomer, unassigned; (-)) [Compound 14, (−)-8-[4-(2-butoxyethoxy)phenyl]-1-isobutyl-N-[4-[[[1-propyl-1H-imidazol-5-yl]methyl]sulfinyl]phenyl]-1,2,3,4-tetrahydro-1-benzoazocine-5-carboxamide methanesulfonate] was run?
Answer: Its value is 98%.

Question: With C=C(C)CN1CCCC(C(=O)Nc2ccc([S+]([O-])Cc3cncn3CCC)cc2)=Cc2cc(-c3ccc(OCCOCCCC)cc3)ccc21 (single isomer, unassigned; (-)) [Compound 23, (−)-8-[4-(2-butoxyethoxy)phenyl]-1-(2-methyl-2-propen-1-yl)-N-[4-[[[1-propylimidazol-5-yl]methyl]sulfinyl]phenyl]-1,2,3,4-tetrahydro-1-benzoazocine-5-carboxylic] as the compound, how does the “Binding Inhibitory Ratio (%)” value read?
Answer: The value was 97%.

Question: CCCCOCCOc1ccc(-c2ccc3c(c2)C=C(C(=O)Nc2ccc([S+]([O-])Cc4nncn4CCC)cc2)CCCN3CC(C)C)cc1 (single isomer, unassigned; (-)) [Compound 49, (−)-8-[4-(2-butoxyethoxy)phenyl]-1-isobutyl-N-[4-[[(4-propyl-4H-1,2,4-triazol-3-yl)methyl]sulfinyl]phenyl]-1,2,3,4-tetrahydro-1-benzazocine-5-carboxamide] was tested. Which “Binding Inhibitory Ratio (%)” value did it give?
Answer: The value was 91%.

Question: CCCCOCCOc1ccc(-c2ccc3c(c2)C=C(C(=O)Nc2ccc([S+]([O-])Cc4nncn4CCC)cc2)CCCN3CCC)cc1 (single isomer, unassigned; (-)) [Compound 52, (−)-8-[4-(2-butoxyethoxy)phenyl]-1-propyl-N-[4-[[[4-propyl-4H-1,2,4-triazol-3-yl]methyl]sulfinyl]phenyl]-1,2,3,4-tetrahydro-1-benzazocine-5-carboxamide] was tested. Which “Binding Inhibitory Ratio (%)” value did it give?
Answer: The value was 96%.

Question: CCCCOCCOc1ccc(-c2ccc3c(c2)C=C(C(=O)Nc2ccc([S+]([O-])Cc4cncn4CCC)cc2)CCCN3CCC)cc1 (stereo not shown) [Compound 4, 8-[4-(2-butoxyethoxy)phenyl]-1-propyl-N-[4-[[[1-propylimidazol-5-yl]methyl]sulfinyl]phenyl]-1,2,3,4-tetrahydro-1-benzazocine-5-carboxamide] was tested. Which “Binding Inhibitory Ratio (%)” value did it give?
Answer: The value was 100%.

Question: With CCCCOCCOc1ccc(-c2ccc3c(c2)C=C(C(=O)Nc2ccc(SCc4cncn4CCC)cc2)CCCN3CC(C)C)cc1 [Compound 6] as the compound, how does the “Binding Inhibitory Ratio (%)” value read?
Answer: Its value is 98%.

Question: How did the “Binding Inhibitory Ratio (%)” value turn out when CCCCOCCOc1ccc(-c2ccc3c(c2)C=C(C(=O)Nc2ccc(SCc4cncn4CCC)cc2)CCCN3CC(C)C)cc1 [Compound 8, 8-[4-(2-butoxyethoxy)phenyl]-I-isobutyl-N-[4-[[[1-propyl-1H-imidazol-5-yl]methyl]sulfanyl]phenyl]-1,2,3,4-tetrahydro-1-benzazocine-5-carboxamide] was run?
Answer: Its value is 99%.

Question: For CCCCOCCOc1ccc(-c2ccc3c(c2)C=C(C(=O)Nc2ccc([S+]([O-])Cc4cncn4CCC)cc2)CCCN3CC(C)CO)cc1 (stereo not shown) [Compound 32, 8-[4-(2-butoxyethoxy)phenyl]-1-(2-methyl-3-hydroxy)propyl-N-[4-[[[1-propylimidazol-5-yl]methyl]sulfinyl]phenyl]-1,2,3,4-tetrahydro-1-benzoazocine-5-carboxamide], which “Binding Inhibitory Ratio (%)” value is on record?
Answer: The value was 100%.

Source: US10045968B2, “Bicyclic compound, production and use thereof” (TOBIRA THERAPEUTICS, INC., priority 2001, dated 2018)
